ChEMBL document CHEMBL4002630, “The design and synthesis of novel spirocyclic heterocyclic sulfone ROMK inhibitors as diuretics” (Bioorg Med Chem Lett, 2017)
pIC50: −log10 of the molar value.

Target: T1, ATP-sensitive inward rectifier potassium channel 1 (Rattus norvegicus, UniProt P35560)
T1 sequence (P35560 whole entry): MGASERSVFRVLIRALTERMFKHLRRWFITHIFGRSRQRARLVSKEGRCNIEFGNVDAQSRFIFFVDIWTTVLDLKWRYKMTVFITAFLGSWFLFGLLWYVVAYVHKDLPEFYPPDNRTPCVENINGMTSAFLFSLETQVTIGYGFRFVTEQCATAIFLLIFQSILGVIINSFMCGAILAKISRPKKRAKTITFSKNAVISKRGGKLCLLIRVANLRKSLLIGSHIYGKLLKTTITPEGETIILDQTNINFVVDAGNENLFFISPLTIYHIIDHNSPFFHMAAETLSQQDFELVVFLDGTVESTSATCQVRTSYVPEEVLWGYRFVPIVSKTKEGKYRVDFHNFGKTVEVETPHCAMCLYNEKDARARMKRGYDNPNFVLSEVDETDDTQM
Test: Inhibition of rat ROMK expressed in HEK293 cells after 30 mins by thallium flux assay
Type: cell-based
Details: not given

Row | pIC50 | Structure (SMILES)
1 | 7.22 | Cc1c([C@@H](O)CN2CCC3(CC2)CCN(c2ccc(S(C)(=O)=O)cn2)C3)ccc2c1COC2=O
2 | 6.62 | Cc1c([C@@H](O)CN2CCC3(CC2)CCN(c2ccc(S(C)(=O)=O)nc2)C3)ccc2c1COC2=O

System: not listed separately
Test: in vivo
Details: rat, iv, 0.5 mg/kg

Row | Vd [L/kg] | Structure (SMILES)
3 | 3.5 | Cc1c([C@@H](O)CN2CCC3(CC2)CCN(c2ccc(S(C)(=O)=O)cn2)C3)ccc2c1COC2=O
4 | 2.8 | Cc1c([C@@H](O)CN2CCC3(CC2)CCN(c2ccc(S(C)(=O)=O)nc2)C3)ccc2c1COC2=O

System: Rattus norvegicus
Test: Antihypertensive activity in rat spontaneous hypertensive model assessed as change in systolic blood pressure at 3 mg/kg, po measured after 3 days
Type: functional
Details: not given

Row | Structure (SMILES) | Activity [mmHg]
5 | Cc1c([C@@H](O)CN2CCC3(CC2)CCN(c2ccc(S(C)(=O)=O)cn2)C3)ccc2c1COC2=O | -20.3
6 | Cc1c([C@@H](O)CN2CCC3(CC2)CCN(c2ccc(S(C)(=O)=O)nc2)C3)ccc2c1COC2=O | 0.1

System: not listed separately
Test: in vivo
Details: rat, po, 1 mg/kg

Row | bioavailability [%] | Structure (SMILES)
7 | 51 | Cc1c([C@@H](O)CN2CCC3(CC2)CCN(c2ccc(S(C)(=O)=O)cn2)C3)ccc2c1COC2=O
8 | 96 | Cc1c([C@@H](O)CN2CCC3(CC2)CCN(c2ccc(S(C)(=O)=O)nc2)C3)ccc2c1COC2=O

Species: Rattus norvegicus
Test: not given
Details: in vivo, iv, 0.5 mg/kg

Row | clearance [L/h/kg] | Structure (SMILES)
9 | 1.44 | Cc1c([C@@H](O)CN2CCC3(CC2)CCN(c2ccc(S(C)(=O)=O)cn2)C3)ccc2c1COC2=O
10 | 1.38 | Cc1c([C@@H](O)CN2CCC3(CC2)CCN(c2ccc(S(C)(=O)=O)nc2)C3)ccc2c1COC2=O

Target: T2, ATP-sensitive inward rectifier potassium channel 1 (Homo sapiens, UniProt P48048)
T2 sequence (P48048 whole entry): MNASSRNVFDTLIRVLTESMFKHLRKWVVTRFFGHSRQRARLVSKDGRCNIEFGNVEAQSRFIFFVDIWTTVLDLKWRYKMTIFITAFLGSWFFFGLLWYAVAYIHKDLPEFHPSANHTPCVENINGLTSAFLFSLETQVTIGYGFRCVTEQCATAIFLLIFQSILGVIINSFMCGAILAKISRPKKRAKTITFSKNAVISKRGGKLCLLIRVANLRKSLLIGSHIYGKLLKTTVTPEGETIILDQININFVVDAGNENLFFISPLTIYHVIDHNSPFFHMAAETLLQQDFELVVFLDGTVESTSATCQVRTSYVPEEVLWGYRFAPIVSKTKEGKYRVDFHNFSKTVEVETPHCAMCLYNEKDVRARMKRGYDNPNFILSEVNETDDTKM
Test: Inhibition of human ROMK expressed in CHO cells by electrophysiology method
Type: cell-based
Details: not given

Row | pIC50 | Structure (SMILES)
11 | 7.54 | Cc1c([C@@H](O)CN2CCC3(CC2)CCN(c2ccc(S(C)(=O)=O)cn2)C3)ccc2c1COC2=O
12 | 7.30 | Cc1c([C@@H](O)CN2CCC3(CC2)CCN(c2ccc(S(C)(=O)=O)nc2)C3)ccc2c1COC2=O

Target: T2, ATP-sensitive inward rectifier potassium channel 1
Test: Inhibition of human ROMK expressed in HEK293 cells after 30 mins by thallium flux assay
Type: cell-based
Details: read-out: IC50

Row | pIC50 | Structure (SMILES)
13 | 6.65 | Cc1c([C@@H](O)CN2CCC3(CC2)CCN(c2ccc(S(C)(=O)=O)nc2)C3)ccc2c1COC2=O

System: not listed separately
Test: Drug uptake in plasma of rat spontaneous hypertensive model at 3 mg/kg, po measured after 3 days
Type: ADME, organism-based
Details: spontaneously hypertensive rat

Row | concentration at 72 h [µM] | Structure (SMILES)
14 | 0.162 | Cc1c([C@@H](O)CN2CCC3(CC2)CCN(c2ccc(S(C)(=O)=O)cn2)C3)ccc2c1COC2=O
15 | 0.39 | Cc1c([C@@H](O)CN2CCC3(CC2)CCN(c2ccc(S(C)(=O)=O)nc2)C3)ccc2c1COC2=O

Species: Rattus norvegicus
Test: not given
Details: in vivo, po, 1 mg/kg

Row | AUC/dose [µM·kg·h/mg] | Structure (SMILES)
16 | 0.7 | Cc1c([C@@H](O)CN2CCC3(CC2)CCN(c2ccc(S(C)(=O)=O)cn2)C3)ccc2c1COC2=O
17 | 0.7 | Cc1c([C@@H](O)CN2CCC3(CC2)CCN(c2ccc(S(C)(=O)=O)nc2)C3)ccc2c1COC2=O

System: not listed separately
Test: in vivo
Details: rat

Row | half-life [h] | Structure (SMILES)
18 | 1.8 | Cc1c([C@@H](O)CN2CCC3(CC2)CCN(c2ccc(S(C)(=O)=O)cn2)C3)ccc2c1COC2=O
19 | 2 | Cc1c([C@@H](O)CN2CCC3(CC2)CCN(c2ccc(S(C)(=O)=O)nc2)C3)ccc2c1COC2=O

System: not listed separately
Test: Volume of distribution at steady state in dog at 0.5 mg/kg, iv
Type: ADME, organism-based, Canis lupus familiaris
Details: in vivo, read-out: Vdss

Row | Vd [L/kg] | Structure (SMILES)
20 | 6.9 | Cc1c([C@@H](O)CN2CCC3(CC2)CCN(c2ccc(S(C)(=O)=O)cn2)C3)ccc2c1COC2=O

System: not listed separately
Test: Half life in dog at 0.5 mg/kg, iv
Type: ADME, organism-based, Canis lupus familiaris
Details: in vivo

Row | half-life [h] | Structure (SMILES)
21 | 1.7 | Cc1c([C@@H](O)CN2CCC3(CC2)CCN(c2ccc(S(C)(=O)=O)cn2)C3)ccc2c1COC2=O

System: not listed separately
Test: Drug excretion in urine of rat spontaneous hypertensive model at 3 mg/kg, po measured after 4 hrs
Type: ADME, organism-based
Details: spontaneously hypertensive rat, read-out: Drug excretion

Row | concentration at 4 h [µM] | Structure (SMILES)
22 | 26.6 | Cc1c([C@@H](O)CN2CCC3(CC2)CCN(c2ccc(S(C)(=O)=O)nc2)C3)ccc2c1COC2=O

System: not listed separately
Test: Drug excretion in urine of rat spontaneous hypertensive model at 3 mg/kg, po measured after 24 hrs
Type: ADME, organism-based
Details: spontaneously hypertensive rat, read-out: Drug excretion

Row | concentration at 24 h [µM] | Structure (SMILES)
23 | 21.2 | Cc1c([C@@H](O)CN2CCC3(CC2)CCN(c2ccc(S(C)(=O)=O)nc2)C3)ccc2c1COC2=O

System: Canis familiaris
Test: AUC (0 to t) in dog at 0.5 mg/kg, iv
Type: ADME, organism-based, Canis lupus familiaris
Details: in vivo

Row | AUCt [nM·h] | Structure (SMILES)
24 | 660 | Cc1c([C@@H](O)CN2CCC3(CC2)CCN(c2ccc(S(C)(=O)=O)cn2)C3)ccc2c1COC2=O
